{"source": "patent US9975868B2", "about": "“7,8-dihydoxyflavone and 7,8-substituted flavone derivatives, compositions, and methods related thereto” (EMORY UNIVERSITY, priority 2012, dated 2018)", "key": {"[1]": {"assay": "brain 7,8-DHF concentration after oral administration", "format": "in vivo, mice"}, "[2]": {"system": "mouse model of Alzheimer's disease", "conditions": "cited from earlier work"}, "[3]": {"assay": "in vivo PK study, plasma 7,8-DHF after oral administration", "parameters": "species or system mice", "description": "Two months old mice were orally administrated 78 mg/kg of the R7, and mice were sacrificed at different time points (n=3), the plasma was then harvested and analyzed by HPLC/MS.\nDerivatives with various moieties on the catechol group in 7,8-DHF were synthesized. These derivatives were monitored for intestine microsomal stability, liver microsomal stability and plasma stability."}, "TrkB": {"target": "T1, TrkB (Mus musculus, UniProt P15209)", "T1 construct": "from tissue; host or cells: mouse brain (lysates after oral dosing)", "T1 sequence (P15209 32-821)": "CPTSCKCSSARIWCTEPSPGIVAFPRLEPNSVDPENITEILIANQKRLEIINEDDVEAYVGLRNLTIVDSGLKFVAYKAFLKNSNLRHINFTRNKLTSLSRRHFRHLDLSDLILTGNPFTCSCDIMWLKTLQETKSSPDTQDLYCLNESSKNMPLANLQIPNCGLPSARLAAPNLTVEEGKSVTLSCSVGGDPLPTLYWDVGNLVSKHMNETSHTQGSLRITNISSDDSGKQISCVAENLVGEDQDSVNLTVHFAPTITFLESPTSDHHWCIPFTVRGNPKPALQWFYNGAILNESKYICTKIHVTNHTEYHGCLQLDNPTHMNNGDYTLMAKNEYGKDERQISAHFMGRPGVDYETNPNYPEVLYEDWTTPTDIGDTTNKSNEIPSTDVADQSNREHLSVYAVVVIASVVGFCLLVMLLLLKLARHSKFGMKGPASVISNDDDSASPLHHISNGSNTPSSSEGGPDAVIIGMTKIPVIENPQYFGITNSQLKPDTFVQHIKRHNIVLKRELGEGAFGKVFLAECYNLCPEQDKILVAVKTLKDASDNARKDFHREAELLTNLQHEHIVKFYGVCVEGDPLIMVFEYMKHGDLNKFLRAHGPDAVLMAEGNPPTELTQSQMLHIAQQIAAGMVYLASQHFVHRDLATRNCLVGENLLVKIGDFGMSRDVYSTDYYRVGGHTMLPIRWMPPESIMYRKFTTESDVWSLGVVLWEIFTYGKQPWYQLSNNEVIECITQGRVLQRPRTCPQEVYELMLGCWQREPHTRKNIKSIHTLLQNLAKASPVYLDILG", "assay": "TrkB signaling in mouse brain by immunoblotting after oral administration", "format": "in vivo", "conditions": "R7 78 mg/kg oral", "description": "R7 (78 mg/kg equal to about 50 mg/kg of 7,8-DHF) was administered orally. The mice were sacrificed at different intervals. The brain lysates were analyzed by immunobotting with various antibodies including p-TrkB 816, Total TrkB, p-Akt and total Akt.\nThe TrkB signaling in mouse brains was monitored from the in vivo PK study. […] The pharmacodynamic (PD) study fits well with the in vivo PK data, underscoring that the released 7,8-DHF from R7 triggers the long-lasting TrkB signalings in mouse brain."}, "[4]": {"assay": "chemical stability in pH 1.2 and 7.4 buffer", "format": "physicochemical", "description": "Metabolism studies indicate that the catechol group is conjugated by glucuronidation, sulfation and methylation in liver, which leads to the poor oral bioavailability upon oral administration. […] Most of 7,8-DHF is conjugated and metabolized within 30 min. Derivatives with various moieties on the catechol group in 7,8-DHF were synthesized. These derivatives were monitored for intestine microsomal stability, liver microsomal stability and plasma stability. In addition, compounds with favorable chemical stability and Caco-2 permeability were examined.\nR7 and R13 were chosen to analyze their in vivo PK profiles. The concentration of 7,8-DHF's in brain was examined at different time points after oral administrated 72.5 mg/kg, which is the molecular equivalent of 50 mg/kg of 7,8-DHF. In plasma, 7,8-DHF peaked at around 100 min for R13, whereas administration of the parent compound 7,8-DHF, occurred at 10 min. The oral bioavailability of R13 was around 10%."}}, "note": "Entries after “also recorded” stand apart in the source; their conditions may differ.", "data": [{"smiles": "O=c1cc(-c2ccccc2)oc2c(O)c(O)ccc12", "note": "[7,8-DHF, 7,8-dihydroxyflavone, reference compound]", "values": [{"measurement": "7,8-DHF detectability in brain", "setting": "[1]; oral administration of parent compound", "value": "not detectable after 4 h"}, {"measurement": "memory deficits and BACE1 elevation", "setting": "[2]", "value": "reverses"}, {"measurement": "time within which most is conjugated and metabolized", "setting": "[3]; C57BL6, mouse, in vivo", "value": "≤ 30", "unit": "min"}, {"measurement": "bioavailability", "setting": "[3]; C57BL6, mouse, in vivo, po", "value": "~5", "unit": "%"}]}, {"smiles": "CN(C)C(=O)Oc1ccc2c(=O)cc(-c3ccccc3)oc2c1OC(=O)N(C)C", "note": "[R7, 4-oxo-2-phenyl-4H-chromene-7,8-diyl bis(dimethylcarbamate)]", "values": [{"measurement": "TrkB activation (p-TrkB) in mouse brain", "setting": "TrkB", "value": "potently activated; also recorded: triggers TrkB activation"}, {"measurement": "downstream p-Akt signaling activation in mouse brain", "setting": "TrkB", "value": "potently activated; also recorded: downstream Akt signaling activation"}, {"measurement": "7,8-DHF plasma concentrations compared with parent compound", "setting": "[3]; R7 78 mg/kg vs 7,8-DHF 50 mg/kg P.O.", "value": "higher than parent compound"}, {"measurement": "7,8-DHF detectable in plasma", "setting": "[3]; at 8 h after oral R7", "value": "detectable"}, {"measurement": "chemical stability in buffer", "setting": "[4]; pH 1.2", "value": "stable"}, {"measurement": "chemical stability in buffer", "setting": "[4]; pH 7.4", "value": "stable"}]}, {"smiles": "CNC(=O)Oc1ccc2c(=O)cc(-c3ccccc3)oc2c1OC(=O)NC", "note": "[R13, 4-oxo-2-phenyl-4H-chromene-7,8-diyl bis(methylcarbamate)]", "values": [{"measurement": "7,8-DHF oral bioavailability and brain concentrations versus parent compound", "setting": "[1]; FIG. 4, oral administration", "value": "improves"}, {"measurement": "7,8-DHF brain availability", "setting": "[1]; oral 72.5 mg/kg", "value": "significantly elongated"}]}]}
